{"source": "the supplement of paper PMC9663587", "assay_in_all_cases": "GRmax, 72 h; higher = less effect;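 note: breast cell lines in 384-well plates, nine doses across a 10^4 range, Dye Drop imaging of viable cells vs DMSO and time-zero plates, GR 0 means no net growth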", "key": {"[1]": {"test_system": "MCF10A (GM)"}, "[2]": {"test_system": "PDX1206"}, "[3]": {"test_system": "HCC1428"}, "[4]": {"test_system": "HCC1500"}, "[5]": {"test_system": "MDAMB157"}}}
{"smiles": "COc1ccc2c(c1)[C@]1(C[C@H]1c1ccc3c(/C=C/c4ccc(CN5C[C@@H](C)O[C@@H](C)C5)cc4)n[nH]c3c1)C(=O)N2", "values": [{"measurement": "GRmax, 72 h", "setting": "[1]", "result": 0.0912, "unit": "GR"}, {"measurement": "GRmax, 72 h", "setting": "[2]", "result": 0.0507, "unit": "GR"}]}
{"smiles": "COc1cccc(OCCCN)c1-c1cc(Nc2cnc(C#N)cn2)n[nH]1", "values": [{"measurement": "GRmax, 72 h", "setting": "[1]", "result": 0.322, "unit": "GR"}, {"measurement": "GRmax, 72 h", "setting": "[2]", "result": -0.497, "unit": "GR"}]}
{"smiles": "CC(=O)Nc1cccc(-n2c(=O)n(C3CC3)c(=O)c3c(Nc4ccc(I)cc4F)n(C)c(=O)c(C)c32)c1", "note": "(max 1 µM)", "values": [{"measurement": "GRmax, 72 h", "setting": "[3]", "result": 0.815, "unit": "GR"}, {"measurement": "GRmax, 72 h", "setting": "[4]", "result": 0.344, "unit": "GR"}, {"measurement": "GRmax, 72 h", "setting": "[5]", "result": 0.406, "unit": "GR"}]}
{"smiles": "CCc1cnn2c(NCc3ccc[n+]([O-])c3)cc(N3CCCC[C@H]3CCO)nc12", "note": "(max 1 µM)", "values": [{"measurement": "GRmax, 72 h", "setting": "[3]", "result": -0.672, "unit": "GR"}, {"measurement": "GRmax, 72 h", "setting": "[4]", "result": -0.572, "unit": "GR"}, {"measurement": "GRmax, 72 h", "setting": "[5]", "result": -0.911, "unit": "GR"}]}
{"smiles": "CC(=O)c1c(C)c2cnc(Nc3ccc(N4CCNCC4)cn3)nc2n(C2CCCC2)c1=O", "note": "(max 3.162 µM)", "values": [{"measurement": "GRmax, 72 h", "setting": "[3]", "result": 0.254, "unit": "GR"}, {"measurement": "GRmax, 72 h", "setting": "[4]", "result": 0.574, "unit": "GR"}, {"measurement": "GRmax, 72 h", "setting": "[5]", "result": 0.975, "unit": "GR"}]}
{"smiles": "CCc1cncnc1N1CCN(Cc2nc3ccc(C(F)(F)F)cc3[nH]2)CC1", "note": "(max 10 µM)", "values": [{"measurement": "GRmax, 72 h", "setting": "[3]", "result": 0.864, "unit": "GR"}, {"measurement": "GRmax, 72 h", "setting": "[4]", "result": 0.0495, "unit": "GR"}, {"measurement": "GRmax, 72 h", "setting": "[5]", "result": 0.11, "unit": "GR"}]}
{"smiles": "CCCCOc1c(C(=O)c2c(F)cc(C)cc2F)c[nH]c2nncc1-2", "note": "(max 10 µM)", "values": [{"measurement": "GRmax, 72 h", "setting": "[1]", "result": 0.106, "unit": "GR"}, {"measurement": "GRmax, 72 h", "setting": "[2]", "result": 0.123, "unit": "GR"}]}
{"smiles": "CCN1CCN(Cc2ccc(Nc3ncc(F)c(-c4cc(F)c5nc(C)n(C(C)C)c5c4)n3)nc2)CC1", "note": "(max 10 µM)", "values": [{"measurement": "GRmax, 72 h", "setting": "[3]", "result": 0.0492, "unit": "GR"}, {"measurement": "GRmax, 72 h", "setting": "[4]", "result": 0.22, "unit": "GR"}, {"measurement": "GRmax, 72 h", "setting": "[5]", "result": -0.604, "unit": "GR"}]}
{"smiles": "CNc1nc(-c2ccc3c(N)n[nH]c3c2)cc(N2C[C@@H](C(=O)NC3CCCCC3)CC[C@H]2C)n1", "note": "(max 10 µM)", "values": [{"measurement": "GRmax, 72 h", "setting": "[1]", "result": 0.857, "unit": "GR"}, {"measurement": "GRmax, 72 h", "setting": "[2]", "result": 0.295, "unit": "GR"}]}
{"smiles": "CO[C@@H](C)Cn1c(=O)n(C)c2cnc3ccc(-c4cncc(C(C)(C)O)c4)cc3c21", "note": "(max 10 µM)", "values": [{"measurement": "GRmax, 72 h", "setting": "[1]", "result": 0.0552, "unit": "GR"}, {"measurement": "GRmax, 72 h", "setting": "[2]", "result": -0.404, "unit": "GR"}]}
{"smiles": "Cc1nn(C)c(COc2ccc(N3CCN(S(=O)(=O)N(C)C)CC3)cc2)c1-c1cccc2c(CCCOc3cccc4ccccc34)c(C(=O)O)n(CCN3CCOCC3)c12", "note": "(max 10 µM)", "values": [{"measurement": "GRmax, 72 h", "setting": "[3]", "result": 0.816, "unit": "GR"}, {"measurement": "GRmax, 72 h", "setting": "[4]", "result": 0.872, "unit": "GR"}, {"measurement": "GRmax, 72 h", "setting": "[5]", "result": 0.788, "unit": "GR"}]}
{"smiles": "CN(C)CC[C@H](CSc1ccccc1)Nc1ccc(S(=O)(=O)NC(=O)c2ccc(N3CCN(Cc4ccccc4-c4ccc(Cl)cc4)CC3)cc2)cc1[N+](=O)[O-]", "note": "[ABT-737] (max 10 µM)", "values": [{"measurement": "GRmax, 72 h", "setting": "[3]", "result": 0.243, "unit": "GR"}, {"measurement": "GRmax, 72 h", "setting": "[4]", "result": -0.736, "unit": "GR"}, {"measurement": "GRmax, 72 h", "setting": "[5]", "result": 0.201, "unit": "GR"}]}
{"smiles": "C=CCn1c(=O)c2cnc(Nc3ccc(N4CCN(C)CC4)cc3)nc2n1-c1cccc(C(C)(C)O)n1", "note": "[AZD1775] (max 10 µM)", "values": [{"measurement": "GRmax, 72 h", "setting": "[1]", "result": 0.0319, "unit": "GR"}, {"measurement": "GRmax, 72 h", "setting": "[2]", "result": -0.308, "unit": "GR"}]}
{"smiles": "CNC(=O)c1cccc(-c2ccc3c(N4CCOC[C@@H]4C)nc(N4CCOC[C@@H]4C)nc3n2)c1", "note": "[AZD2014] (max 10 µM)", "values": [{"measurement": "GRmax, 72 h", "setting": "[1]", "result": 0.211, "unit": "GR"}, {"measurement": "GRmax, 72 h", "setting": "[2]", "result": 0.14, "unit": "GR"}]}
{"smiles": "NC1(C(=O)N[C@@H](CCO)c2ccc(Cl)cc2)CCN(c2nc[nH]c3nccc2-3)CC1", "note": "[AZD5363] (max 10 µM)", "values": [{"measurement": "GRmax, 72 h", "setting": "[1]", "result": 0.641, "unit": "GR"}, {"measurement": "GRmax, 72 h", "setting": "[2]", "result": 0.397, "unit": "GR"}]}
{"smiles": "C[C@@H]1COCCN1c1cc(C2([S@](C)(=N)=O)CC2)nc(-c2cc[nH]c3nccc2-3)n1", "note": "[AZD6738] (max 10 µM)", "values": [{"measurement": "GRmax, 72 h", "setting": "[1]", "result": 0.226, "unit": "GR"}, {"measurement": "GRmax, 72 h", "setting": "[2]", "result": 0.141, "unit": "GR"}]}
{"smiles": "NC(=O)Nc1cc(-c2cccc(F)c2)sc1C(=O)N[C@H]1CCCNC1", "note": "[AZD7762] (max 10 µM)", "values": [{"measurement": "GRmax, 72 h", "setting": "[3]", "result": -0.215, "unit": "GR"}, {"measurement": "GRmax, 72 h", "setting": "[4]", "result": -0.256, "unit": "GR"}, {"measurement": "GRmax, 72 h", "setting": "[5]", "result": -0.786, "unit": "GR"}]}
{"smiles": "Cc1nc(NC(=O)N2CCC[C@H]2C(N)=O)sc1-c1ccnc(C(C)(C)C(F)(F)F)c1", "note": "[Alpelisib/BYL719] (max 10 µM)", "values": [{"measurement": "GRmax, 72 h", "setting": "[3]", "result": 0.853, "unit": "GR"}, {"measurement": "GRmax, 72 h", "setting": "[4]", "result": 0.581, "unit": "GR"}, {"measurement": "GRmax, 72 h", "setting": "[5]", "result": 0.492, "unit": "GR"}]}
{"smiles": "CN(C)C/C=C/C(=O)Nc1ccc(O[C@@H]2CCC[C@@H](Nc3ncc(Cl)c(-c4c[nH]c5ccccc45)n3)C2)cc1", "note": "[BSJ-01-175] (max 10 µM)", "values": [{"measurement": "GRmax, 72 h", "setting": "[1]", "result": -0.356, "unit": "GR"}, {"measurement": "GRmax, 72 h", "setting": "[2]", "result": -0.936, "unit": "GR"}]}
{"smiles": "CC(=O)c1c(C)c2cnc(Nc3ccc(N4CCN(CCOCCOCCOCCNC(=O)COc5cccc6c5C(=O)N(C5CCC(=O)NC5=O)C6=O)CC4)cn3)nc2n(C2CCCC2)c1=O", "note": "(centres undefined) [BSJ-03-123] (max 10 µM)", "values": [{"measurement": "GRmax, 72 h", "setting": "[1]", "result": -0.17, "unit": "GR"}, {"measurement": "GRmax, 72 h", "setting": "[2]", "result": -0.138, "unit": "GR"}]}
{"smiles": "CC(C)Nc1cc(-c2c[nH]c(C(=O)N[C@H](CO)c3cccc(Cl)c3)c2)c(Cl)cn1", "note": "[BVD523] (max 10 µM)", "values": [{"measurement": "GRmax, 72 h", "setting": "[1]", "result": 0.225, "unit": "GR"}, {"measurement": "GRmax, 72 h", "setting": "[2]", "result": 0.564, "unit": "GR"}]}
{"smiles": "Cc1c(N)nc([C@H](CC(N)=O)NC[C@H](N)C(N)=O)nc1C(=O)N[C@H](C(=O)N[C@H](C)[C@@H](O)[C@H](C)C(=O)N[C@H](C(=O)NCCc1nc(-c2nc(C(=O)NCCC[S+](C)C)cs2)cs1)[C@@H](C)O)[C@@H](OC1OC(CO)C(O)C(O)C1OC1OC(CO)C(O)C(OC(N)=O)C1O)c1cnc[nH]1", "note": "(some centres undefined) [Bleomycin] (max 10 µM)", "values": [{"measurement": "GRmax, 72 h", "setting": "[3]; main component drawn", "result": 0.217, "unit": "GR"}, {"measurement": "GRmax, 72 h", "setting": "[4]; main component drawn", "result": 0.174, "unit": "GR"}, {"measurement": "GRmax, 72 h", "setting": "[5]; main component drawn", "result": -0.281, "unit": "GR"}]}
{"smiles": "Nc1cc(C(F)(F)F)c(-c2cc(N3CCOCC3)nc(N3CCOCC3)n2)cn1", "note": "[Buparlisib/NVP-BKM120] (max 10 µM)", "values": [{"measurement": "GRmax, 72 h", "setting": "[3]", "result": -0.265, "unit": "GR"}, {"measurement": "GRmax, 72 h", "setting": "[4]", "result": -0.546, "unit": "GR"}, {"measurement": "GRmax, 72 h", "setting": "[5]", "result": -0.641, "unit": "GR"}]}
{"smiles": "COc1cc2nccc(Oc3ccc(NC(=O)C4(C(=O)Nc5ccc(F)cc5)CC4)cc3)c2cc1OC", "note": "[Cabozantinib] (max 10 µM)", "values": [{"measurement": "GRmax, 72 h", "setting": "[3]", "result": 0.631, "unit": "GR"}, {"measurement": "GRmax, 72 h", "setting": "[4]", "result": 0.184, "unit": "GR"}, {"measurement": "GRmax, 72 h", "setting": "[5]", "result": 0.149, "unit": "GR"}]}
{"smiles": "COc1cc2c(Oc3ccc4[nH]c(C)cc4c3F)ncnc2cc1OCCCN1CCCC1", "note": "[Cediranib/AZD2171] (max 10 µM)", "values": [{"measurement": "GRmax, 72 h", "setting": "[3]", "result": -0.55, "unit": "GR"}, {"measurement": "GRmax, 72 h", "setting": "[4]", "result": -0.808, "unit": "GR"}, {"measurement": "GRmax, 72 h", "setting": "[5]", "result": -0.585, "unit": "GR"}]}
{"smiles": "Cc1cc(Nc2ncc(Cl)c(Nc3ccccc3S(=O)(=O)C(C)C)n2)c(OC(C)C)cc1C1CCNCC1", "note": "[Ceritinib/LDK378] (max 10 µM)", "values": [{"measurement": "GRmax, 72 h", "setting": "[3]", "result": -0.867, "unit": "GR"}, {"measurement": "GRmax, 72 h", "setting": "[4]", "result": -0.954, "unit": "GR"}, {"measurement": "GRmax, 72 h", "setting": "[5]", "result": -0.926, "unit": "GR"}]}
{"smiles": "N.N.[Cl][Pt][Cl]", "note": "[Cisplatin] (max 10 µM)", "values": [{"measurement": "GRmax, 72 h", "setting": "[3]", "result": 0.122, "unit": "GR"}, {"measurement": "GRmax, 72 h", "setting": "[4]", "result": 0.207, "unit": "GR"}, {"measurement": "GRmax, 72 h", "setting": "[5]", "result": 0.189, "unit": "GR"}]}
